According to paper PMC11766267 (International Journal of Molecular Sciences, 2025):
Where “and” joins values, the source holds several entries; their conditions need not be identical. Equal entries are not always repeated. Where two headings read alike, the source gives them in different places.

What was measured:
[1] = system: HCT-116, MDA-MB-231, HeLa, and MCF-7; assay: MTT cytotoxicity assay, ranges stated over several cell lines; type: cell-based; conditions: Homo sapiens
Protocol: (§1) Subsequently, 100 µL of dimethyl sulfoxide was introduced to dissolve the insoluble formazan.

MCF-7 [2] = assay: MTT cytotoxicity assay, MCF-7; type: cell-based, human; conditions: Homo sapiens, MCF7, 24 h, 24 h treatment, mean ± SD of triplicate
Protocol: as §1

MDA-MB-231 = assay: MTT cytotoxicity assay, MDA-MB-231; type: cell-based; conditions: Homo sapiens, 24 h treatment, mean ± SD of triplicate
Protocol: as §1

HeLa = assay: MTT cytotoxicity assay, HeLa; type: cell-based; conditions: Homo sapiens, 24 h treatment, mean ± SD of triplicate
Protocol: as §1

[3] = MTT cytotoxicity assay, normal cell line WI-38; type: cell-based, human; conditions: human, WI-38 cells (normal human lung fibroblasts), normal (non-cancer) cell line, 24 h treatment
Protocol: as §1

WI-38 = assay: MTT cytotoxicity assay, normal cell line WI-38; type: cell-based, human; conditions: normal (non-cancer) cell line, 24 h treatment
Protocol: as §1

HCT-116 = assay: MTT cytotoxicity assay, HCT-116; type: cell-based; conditions: Homo sapiens, 24 h treatment, mean ± SD of triplicate
Protocol: as §1

MCF-7 [4] = assay: In vitro anti-estrogenic activity assay, MCF-7
VEGFR-2 = VEGFR-2 (Homo sapiens, UniProt P35968); assay: In vitro protein kinase inhibition assay (ELISA kit), VEGFR-2
EGFR = EGFR (Homo sapiens, UniProt P00533); assay: In vitro protein kinase inhibition assay (ELISA kit), EGFR
MCF-7a = assay: In vitro anti-estrogenic activity assay, MCF-7a
HER2 = HER2 (Homo sapiens, UniProt P04626); assay: In vitro protein kinase inhibition assay (ELISA kit), HER2
CDK2 = CDK2 (Homo sapiens, UniProt P24941); assay: In vitro protein kinase inhibition assay (ELISA kit), CDK2
[5] = target: T1, aromatase (CYP19A, EC 1.14.14.14) (Homo sapiens, UniProt P11511); assay: biochemical
T1 construct: Microsomal samples were isolated from tissue using the Microsome Isolation Kit; tissue BioVision K983-100; host or cells: microsomes from an unnamed tissue
T1 sequence (P11511 1-503): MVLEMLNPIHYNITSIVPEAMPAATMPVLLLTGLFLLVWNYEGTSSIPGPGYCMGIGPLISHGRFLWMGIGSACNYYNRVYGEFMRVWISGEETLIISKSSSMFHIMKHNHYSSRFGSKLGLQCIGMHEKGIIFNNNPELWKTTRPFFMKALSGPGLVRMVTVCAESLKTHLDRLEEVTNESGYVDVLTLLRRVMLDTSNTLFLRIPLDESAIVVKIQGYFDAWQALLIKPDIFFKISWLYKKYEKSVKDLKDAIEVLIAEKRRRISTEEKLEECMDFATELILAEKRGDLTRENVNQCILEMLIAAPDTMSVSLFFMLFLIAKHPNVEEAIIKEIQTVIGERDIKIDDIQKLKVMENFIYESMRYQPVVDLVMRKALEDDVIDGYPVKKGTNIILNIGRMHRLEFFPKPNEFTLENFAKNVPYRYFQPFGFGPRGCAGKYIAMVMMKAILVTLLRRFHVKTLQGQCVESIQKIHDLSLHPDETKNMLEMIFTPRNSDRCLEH
Protocol: In vitro aromatase assay was performed using the BioVision Aromatase Activity Assay Kit (Catalog # K983-100; BioVision, Milpitas, CA, USA). Microsomal samples were isolated from tissue using the Microsome Isolation Kit (Cat. #K249; BioVision, Milpitas, CA, USA). A standard curve was established by diluting the Fluorescence Standard provided in the kit to create a 0.5 pmole/µL solution, followed by setting up a series of standards in a white 96-well plate, adjusting the total volume to 100 µL with aromatase assay buffer. For each reaction well, a 2X concentrated mix was prepared by adding 2–48 µL of the microsomal sample and 2 µL of the NADPH generating system, bringing the final volume to 50 µL with aromatase assay buffer. Background controls (no enzyme) and positive controls (with recombinant aromatase) were included. […] After a 10 min incubation at 37 °C, 30 µL of the substrate/NADP+ mixture was added to each well, and fluorescence was measured immediately in kinetic mode for 60 min at 37 °C. Finally, the change in fluorescence was calculated to determine the specific activity of aromatase using the formula provided in the kit protocol.

[6] = HCT-116, MDA-MB-231, HeLa, MCF-7, range, read-out: IC50 values, range over the cancer cell lines tested
[7] = cell count relative to the control (17β-E2)

Sequence of VEGFR-2 (P35968 20-1356): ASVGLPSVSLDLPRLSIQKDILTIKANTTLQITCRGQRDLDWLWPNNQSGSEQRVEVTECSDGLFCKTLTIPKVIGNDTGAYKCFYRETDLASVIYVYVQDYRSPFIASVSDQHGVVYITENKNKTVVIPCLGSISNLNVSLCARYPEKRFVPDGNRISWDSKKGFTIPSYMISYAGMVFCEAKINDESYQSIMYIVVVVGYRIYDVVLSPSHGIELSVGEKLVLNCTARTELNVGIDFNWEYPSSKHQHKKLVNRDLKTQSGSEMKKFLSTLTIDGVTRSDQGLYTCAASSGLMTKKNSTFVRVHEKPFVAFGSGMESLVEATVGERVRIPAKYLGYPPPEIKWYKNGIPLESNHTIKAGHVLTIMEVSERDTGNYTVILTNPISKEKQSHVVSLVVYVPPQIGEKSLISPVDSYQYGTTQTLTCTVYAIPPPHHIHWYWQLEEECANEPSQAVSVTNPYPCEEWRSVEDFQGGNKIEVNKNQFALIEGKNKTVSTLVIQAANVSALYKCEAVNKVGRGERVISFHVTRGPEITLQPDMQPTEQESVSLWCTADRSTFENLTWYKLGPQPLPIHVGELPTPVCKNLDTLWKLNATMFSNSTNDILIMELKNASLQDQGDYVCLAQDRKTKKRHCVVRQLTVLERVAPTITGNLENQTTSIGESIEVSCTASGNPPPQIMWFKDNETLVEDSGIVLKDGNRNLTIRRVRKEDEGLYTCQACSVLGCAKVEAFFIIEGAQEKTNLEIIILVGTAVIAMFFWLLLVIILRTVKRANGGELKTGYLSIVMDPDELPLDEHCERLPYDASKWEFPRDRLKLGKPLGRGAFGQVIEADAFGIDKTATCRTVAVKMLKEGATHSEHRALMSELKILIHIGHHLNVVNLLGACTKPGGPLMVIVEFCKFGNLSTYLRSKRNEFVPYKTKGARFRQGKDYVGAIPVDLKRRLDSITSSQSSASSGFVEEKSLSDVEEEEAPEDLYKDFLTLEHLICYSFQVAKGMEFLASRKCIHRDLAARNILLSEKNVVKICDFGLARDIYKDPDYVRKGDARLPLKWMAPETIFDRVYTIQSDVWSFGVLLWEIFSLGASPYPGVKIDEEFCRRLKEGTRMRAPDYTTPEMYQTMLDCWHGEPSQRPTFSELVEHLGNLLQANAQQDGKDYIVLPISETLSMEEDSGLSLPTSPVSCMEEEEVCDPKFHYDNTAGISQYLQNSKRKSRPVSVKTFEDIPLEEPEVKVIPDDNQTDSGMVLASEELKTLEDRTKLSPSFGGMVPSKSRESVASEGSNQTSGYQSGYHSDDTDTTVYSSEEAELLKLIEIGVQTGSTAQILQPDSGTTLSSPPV
Sequence of HER2 (P04626 23-1255): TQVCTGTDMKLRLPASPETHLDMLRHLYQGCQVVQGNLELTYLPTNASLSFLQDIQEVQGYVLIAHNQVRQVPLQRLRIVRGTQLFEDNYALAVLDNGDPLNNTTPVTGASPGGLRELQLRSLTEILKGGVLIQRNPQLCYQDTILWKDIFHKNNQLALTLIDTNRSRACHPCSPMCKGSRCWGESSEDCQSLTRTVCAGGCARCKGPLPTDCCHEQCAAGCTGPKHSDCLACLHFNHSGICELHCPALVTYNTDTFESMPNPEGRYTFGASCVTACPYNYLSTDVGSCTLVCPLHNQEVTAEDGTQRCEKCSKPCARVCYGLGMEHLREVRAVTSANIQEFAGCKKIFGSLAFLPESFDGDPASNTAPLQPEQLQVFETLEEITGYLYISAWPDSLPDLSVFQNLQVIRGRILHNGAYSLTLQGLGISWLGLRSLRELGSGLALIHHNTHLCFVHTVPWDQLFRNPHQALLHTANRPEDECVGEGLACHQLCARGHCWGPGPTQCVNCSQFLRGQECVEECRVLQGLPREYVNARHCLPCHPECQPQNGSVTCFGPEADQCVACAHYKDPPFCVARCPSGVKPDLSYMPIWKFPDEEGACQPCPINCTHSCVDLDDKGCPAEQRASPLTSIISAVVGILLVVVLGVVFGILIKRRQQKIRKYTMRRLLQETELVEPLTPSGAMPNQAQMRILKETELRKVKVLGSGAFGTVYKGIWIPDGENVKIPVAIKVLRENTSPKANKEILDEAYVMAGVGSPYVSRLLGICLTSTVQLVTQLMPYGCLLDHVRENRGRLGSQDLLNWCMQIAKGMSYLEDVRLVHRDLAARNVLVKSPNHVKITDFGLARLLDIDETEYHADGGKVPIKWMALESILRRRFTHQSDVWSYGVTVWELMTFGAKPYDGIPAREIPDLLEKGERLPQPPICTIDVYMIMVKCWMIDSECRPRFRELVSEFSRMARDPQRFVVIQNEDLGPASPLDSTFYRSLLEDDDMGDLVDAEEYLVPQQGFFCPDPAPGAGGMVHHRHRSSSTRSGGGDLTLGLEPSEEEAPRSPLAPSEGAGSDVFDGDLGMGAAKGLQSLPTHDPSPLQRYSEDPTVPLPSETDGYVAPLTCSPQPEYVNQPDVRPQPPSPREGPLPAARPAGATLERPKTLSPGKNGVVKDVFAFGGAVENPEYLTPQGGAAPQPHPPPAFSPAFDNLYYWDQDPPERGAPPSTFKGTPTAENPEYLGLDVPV
Sequence of EGFR (P00533 25-1210): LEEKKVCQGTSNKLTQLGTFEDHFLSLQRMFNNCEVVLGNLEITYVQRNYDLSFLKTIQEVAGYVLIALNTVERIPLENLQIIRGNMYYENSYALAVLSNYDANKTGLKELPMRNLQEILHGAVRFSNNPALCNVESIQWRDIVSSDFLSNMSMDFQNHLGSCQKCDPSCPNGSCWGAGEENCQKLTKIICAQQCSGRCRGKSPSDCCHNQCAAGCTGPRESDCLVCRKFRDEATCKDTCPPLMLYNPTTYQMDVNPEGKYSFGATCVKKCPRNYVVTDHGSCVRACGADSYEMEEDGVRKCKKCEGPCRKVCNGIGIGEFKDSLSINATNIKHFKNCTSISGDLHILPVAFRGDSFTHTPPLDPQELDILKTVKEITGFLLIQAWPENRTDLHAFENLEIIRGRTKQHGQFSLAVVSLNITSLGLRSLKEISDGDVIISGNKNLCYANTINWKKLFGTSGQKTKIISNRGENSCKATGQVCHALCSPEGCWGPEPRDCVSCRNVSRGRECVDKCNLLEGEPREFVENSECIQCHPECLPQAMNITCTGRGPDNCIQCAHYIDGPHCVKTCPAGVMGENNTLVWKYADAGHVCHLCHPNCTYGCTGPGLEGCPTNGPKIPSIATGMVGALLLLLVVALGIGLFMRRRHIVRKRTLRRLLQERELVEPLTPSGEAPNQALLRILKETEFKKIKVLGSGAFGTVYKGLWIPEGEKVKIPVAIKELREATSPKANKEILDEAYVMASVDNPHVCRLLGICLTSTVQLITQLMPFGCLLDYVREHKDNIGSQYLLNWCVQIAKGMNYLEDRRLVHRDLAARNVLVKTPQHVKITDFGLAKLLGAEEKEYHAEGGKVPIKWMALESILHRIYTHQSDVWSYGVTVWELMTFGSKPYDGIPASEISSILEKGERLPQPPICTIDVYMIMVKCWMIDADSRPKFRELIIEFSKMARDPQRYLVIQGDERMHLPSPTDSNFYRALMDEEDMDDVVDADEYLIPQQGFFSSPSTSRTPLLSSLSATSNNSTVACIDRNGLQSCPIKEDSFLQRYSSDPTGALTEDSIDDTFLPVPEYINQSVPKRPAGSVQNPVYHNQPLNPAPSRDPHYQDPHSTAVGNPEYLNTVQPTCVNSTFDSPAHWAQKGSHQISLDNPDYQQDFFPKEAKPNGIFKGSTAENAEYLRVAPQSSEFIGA

COc1cccc(/C=C/C(=O)c2ccccc2)c1 [Compound 4d, (E)-3-(3-Methoxyphenyl)-1-phenylprop-2-en-1-one]
IC50 [1, 6]: 23.5 to 74.5 µM | IC50 (MCF-7 [2]): 29.7 ± 1.9 µM | IC50 (MDA-MB-231): 43.6 ± 2.3 µM | IC50 (HeLa): 39.4 ± 2.3 µM | IC50 at 24 h [3]: 77.3 to 100 µM | IC50 (WI-38): 77.3 ± 3.8 µM | IC50 (HCT-116): 36 ± 2.2 µM

COc1cc(/C=C/C(=O)c2ccccc2)ccc1OCc1ccccc1 [Compound 4t, (E)-3-(4-(Benzyloxy)-3-methoxyphenyl)-1-phenylprop-2-en-1-one]
IC50 [1, 6]: 55.6 to 82.8 µM | IC50 (MCF-7 [2]): 55.6 ± 2.9 µM | IC50 (MDA-MB-231): 64.1 ± 3.8 µM | IC50 (HeLa): 59.3 ± 3.4 µM | IC50 at 24 h [3]: 40 to 40.1 µM | IC50 (WI-38): 40.1 ± 2.5 µM | IC50 (HCT-116): 68.9 ± 3.7 µM

COc1ccc(C(=O)/C=C/c2ccc(OCc3ccccc3)c(OC)c2)cc1 [Compound 4v, (E)-3-(4-(Benzyloxy)-3-methoxyphenyl)-1-(4-methoxyphenyl)prop-2-en-1-one]
IC50 ([1]; HCT-116 and HeLa, range over the compounds named, read-out: IC50 values, range against HCT-116 and HeLa): 6.59 to 22.6 µM | IC50 ([1]; MDA-MB-231 and MCF-7, range over the compounds named, read-out: IC50 values, range against MDA-MB-231 and MCF-7): 2.08 to 13.6 µM | IC50 (MCF-7 [2]): 8.67 ± 0.6 µM | Cell Proliferation MCF-7 % (MCF-7 [4]; [7]): 73% | Cell Proliferation MCF-7 Cell Count (MCF-7 [4]; mean ± SD of triplicate): 13,611 ± 485 | Reduction of growth/cell count (inhibition) in MCF-7 (MCF-7 [4]; relative to control): 27% | IC50 (MDA-MB-231): 10.2 ± 0.8 µM | IC50 (HeLa): 18.2 ± 1.5 µM | IC50 (VEGFR-2): 1.82 ± 0.062 µM | Inhibition (%) VEGFR2 (VEGFR-2; 0.01 µM, individual Data 1-3): 5.43% and 9.43% | Inhibition (%) VEGFR2 (VEGFR-2; 0.1 µM, individual Data 1-3): 15% and 21.8% | Inhibition (%) VEGFR2 (VEGFR-2; 1 µM, individual Data 1-3): 36.9% and 34.2% | Inhibition (%) VEGFR2 (VEGFR-2; 10 µM, individual Data 1-3): 67.26% and 74.3% | Inhibition (%) VEGFR2 (VEGFR-2; 100 µM, individual Data 1-3): 86% and 93.4% | inhibition at 0.01 µM (VEGFR-2; read-out: Inhibition (%) VEGFR2, 0.01 µM, individual Data 1-3): 7.43% | inhibition at 0.1 µM (VEGFR-2; read-out: Inhibition (%) VEGFR2, 0.1 µM, individual Data 1-3): 18.1% | inhibition at 1 µM (VEGFR-2; read-out: Inhibition (%) VEGFR2, 1 µM, individual Data 1-3): 39% | inhibition at 10 µM (VEGFR-2; read-out: Inhibition (%) VEGFR2, 10 µM, individual Data 1-3): 70.2% | inhibition at 100 µM (VEGFR-2; read-out: Inhibition (%) VEGFR2, 100 µM, individual Data 1-3): 89.2% | IC50 (EGFR): 0.671 ± 0.022 µM | Inhibition (%) EGFR (EGFR; 0.01 µM, individual Data 1-3): 3.97% and 2.96% and 6% | Inhibition (%) EGFR (EGFR; 0.1 µM, individual Data 1-3): 28.6% and 31.2% | Inhibition (%) EGFR (EGFR; 1 µM, individual Data 1-3): 59.9% and 57.5% | Inhibition (%) EGFR (EGFR; 10 µM, individual Data 1-3): 82.3% and 86.7% | Inhibition (%) EGFR (EGFR; 100 µM, individual Data 1-3): 90.54% and 95% | inhibition at 0.1 µM (EGFR; read-out: Inhibition (%) EGFR, 0.1 µM, individual Data 1-3): 29.6% | inhibition at 1 µM (EGFR; read-out: Inhibition (%) EGFR, 1 µM, individual Data 1-3): 62.3% | inhibition at 10 µM (EGFR; read-out: Inhibition (%) EGFR, 10 µM, individual Data 1-3): 84.2% | inhibition at 100 µM (EGFR; read-out: Inhibition (%) EGFR, 100 µM, individual Data 1-3): 92.4% | Cell Proliferation MCF-7a % (MCF-7a; [7]): 98% | Cell Proliferation MCF-7a Cell Count (MCF-7a; mean ± SD of triplicate): 20,397 ± 589 | Inhibition in MCF-7a (MCF-7a; relative to control): 2% | IC50 (HER2): 1.57 ± 0.061 µM | Inhibition (%) Her2 (HER2; 0.01 µM, individual Data 1-3): 4.92% and 2.56% and 8.92% | Inhibition (%) Her2 (HER2; 0.1 µM, individual Data 1-3): 7.65% and 12.67% | Inhibition (%) Her2 (HER2; 1 µM, individual Data 1-3): 45.3% and 42.34% | Inhibition (%) Her2 (HER2; 10 µM, individual Data 1-3): 71.2% and 75.89% | Inhibition (%) Her2 (HER2; 100 µM, individual Data 1-3): 88.65% and 94.3% | inhibition at 0.1 µM (HER2; read-out: Inhibition (%) Her2, 0.1 µM, individual Data 1-3): 10.2% | inhibition at 1 µM (HER2; read-out: Inhibition (%) Her2, 1 µM, individual Data 1-3): 48.9% | inhibition at 10 µM (HER2; read-out: Inhibition (%) Her2, 10 µM, individual Data 1-3): 74.7% | inhibition at 100 µM (HER2; read-out: Inhibition (%) Her2, 100 µM, individual Data 1-3): 91.6% | IC50 at 24 h [3]: 75.2 ± 3.9 µM | IC50 (CDK2): 1.03 ± 0.032 µM | Inhibition (%) CDK2 (CDK2; 0.01 µM, individual Data 1-3): 5.2% and 8.6% | Inhibition (%) CDK2 (CDK2; 0.1 µM, individual Data 1-3): 18.3% and 24.97% | Inhibition (%) CDK2 (CDK2; 1 µM, individual Data 1-3): 47.4% and 43.2% | Inhibition (%) CDK2 (CDK2; 10 µM, individual Data 1-3): 76.2% and 84.1% | Inhibition (%) CDK2 (CDK2; 100 µM, individual Data 1-3): 89.1% and 95.3% | inhibition at 0.01 µM (CDK2; read-out: Inhibition (%) CDK2, 0.01 µM, individual Data 1-3): 6.58% | inhibition at 0.1 µM (CDK2; read-out: Inhibition (%) CDK2, 0.1 µM, individual Data 1-3): 22.9% | inhibition at 1 µM (CDK2; read-out: Inhibition (%) CDK2, 1 µM, individual Data 1-3): 51.2% | inhibition at 10 µM (CDK2; read-out: Inhibition (%) CDK2, 10 µM, individual Data 1-3): 79.3% | inhibition at 100 µM (CDK2; read-out: Inhibition (%) CDK2, 100 µM, individual Data 1-3): 92.3% | Inhibition (%) Aromatase ([5]; 0.01 µM, individual Data 1-3): 17% and 20% | Inhibition (%) Aromatase ([5]; 0.1 µM, individual Data 1-3): 36% | Inhibition (%) Aromatase ([5]; 1 µM, individual Data 1-3): 64% and 63% | Inhibition (%) Aromatase ([5]; 10 µM, individual Data 1-3): 84% and 87% | Inhibition (%) Aromatase ([5]; 100 µM, individual Data 1-3): 94% and 97% | IC50 ([5]; mean ± SD of triplicate, approximate values, read-out: Aromatase Inhibition IC50): 0.357 ± 0.012 µM | inhibition at 0.01 µM ([5]; read-out: Inhibition (%) Aromatase, 0.01 µM, individual Data 1-3): 18% | inhibition at 0.1 µM ([5]; read-out: Inhibition (%) Aromatase, 0.1 µM, individual Data 1-3): 34% | inhibition at 1 µM ([5]; read-out: Inhibition (%) Aromatase, 1 µM, individual Data 1-3): 66% | inhibition at 10 µM ([5]; read-out: Inhibition (%) Aromatase, 10 µM, individual Data 1-3): 85% | inhibition at 100 µM ([5]; read-out: Inhibition (%) Aromatase, 100 µM, individual Data 1-3): 95% | IC50 (HCT-116): 14.5 ± 1.1 µM
